Measured values as given in publication PMC8878324, “Evaluation of New Antimicrobial Agents Based on tris(1H-Indol-3-yl)methylium Salts: Activity, Toxicity, Suppression of Experimental Sepsis in Mice” (Pharmaceuticals, 2022).
In brackets after ≈: the same amount, converted by molar mass.

How the values were obtained:
Assay type in all cases: cell-based
Enterococcus faecium 569 = experiment: MIC by broth microdilution; details: for MIC: Enterococcus faecium 569; for activity against Enterococcus faecium 569: in words, strain resistant to cefuroxime, clindamycin, gentamycin, vancomycin and doxycycline
Protocol: (§1) We have tested the antimicrobial activity in vitro of over 100 tris(indolyl)methane derivatives against 16 strains of Gram-positive, Gram-negative bacteria and fungi including either sensitive or drug-resistant strains from ATCC, as well as resistant clinical isolates from the culture collection of the Laboratory for Control of Hospital Infections (Sechenov University, Moscow, Russia). The minimum inhibitory concentrations (MICs) were determined by the microdilution method in a cation-adjusted Müller–Hinton medium for bacteria and in a liquid culture medium RPMI 1640 with L-glutamine without sodium bicarbonate for fungi in accordance with the requirements of the Institute of Clinical and Laboratory Standards (CLSI/NCCLS). […] As a rule, their activity against Gram-negative bacteria was usually not that high. […] For comparison, the antimicrobial activity of prototype 4 is shown. The antibacterial antibiotic levofloxacin and the antifungal amphotericin B were used as reference drugs (Table 1).
(§2) The synthesis of compounds and the scheme of their preparation and purification, as well as physicochemical characteristics, were described earlier. To evaluate the biological activity in vitro, the compounds were dissolved in DMSO at a concentration of 2.0–6.4 mg/mL, followed by preparation of two-fold dilutions in the same solvent, if necessary. The solutions were further diluted in an aqueous medium for the final concentration of DMSO not to exceed 1%, and the concentration of the compounds ranged from 64.0 to 0.13 μg/mL. To study compounds in vivo, solutions for intravenous administration in 5% glucose solution were prepared. Solutions were sterilized by filtration through 0.22 µm filters (Millipore, Burlington, MA, USA).
(§3) Strains of Gram-positive, Gram-negative bacteria and fungi including sensitive or drug-resistant strains from ATCC, as well as resistant clinical isolates from the culture collection of the Laboratory for Control of Hospital Infections (Sechenov University, Moscow, Russia), were used. Clinical isolates of Gram-positive bacteria Staphylococcus aureus 5 (MRSA), Staphylococcus aureus 10, Staphylococcus aureus 100KC (MRSA), Staphylococcus epidermidis 533, Staphylococcus haemoliticus 585 and Enterococcus faecium 569, as well as collection cultures of Gram-positive bacteria Staphylococcus aureus ATCC 700699, Staphylococcus aureus ATCC 25923, Staphylococcus aureus ATCC 3798 and collection cultures of Gram-negative bacteria Escherichia coli ATCC 25922, Klebsiella pneumoniae ATCC 13883, Proteus vulgaris ATCC 13315, Salmonella cholerasuis ATCC 14028, Pseudomonas aeruginosa ATCC 27853 and collection cultures of the yeast Candida albicans ATCC 14053 and the fungi Aspergillus niger ATCC 16404 were used. To grow the microorganisms, we used Trypticase Soy Agar (TSA, Sigma-Aldrich Co., Burlington, MA, USA). Trypticase Soy Agar, BBL, was used for cultivation of Staphylococcus spp. and E. coli. For cultivation of Enterococcus spp. and P. aeruginosa we used a ready-made dry medium Columbia Agar Base, BBL. The media were sterilized by autoclaving at 121 °C for 15 min. Yeast culture C. albicans was grown on Sabouraud agar (peptone—10 g, glucose—40 g, agar—20 g, distilled water—1 L, pH 6.0), and filamentous fungi A. niger was grown on potato–glucose agar (potatoes—200 g, glucose—20 g, agar—15 g, distilled water—1 L, pH 5.5–6.0).
(§4) To determine the antibacterial effect, a liquid Müller–Hinton medium (Becton, Dickinson and Company, Cockeysville, MD, USA) was used; to determine the effect of compounds on fungi we used RPMI 1640 medium with L-glutamine, without sodium bicarbonate, which was prepared from a dry medium (ICN Biomedicals Inc., Costa Mesa, CA, USA) by dilution in distilled water, subsequent buffering with 0.165 M of morpholinepropanesulfonic acid (MOPS, Acros Organics B.V.B.A., Morris Plains, NJ, USA) and adjusting the pH of the medium to 7.0 by adding 1 N of NaOH solution. […]

[1] = tested on: Escherichia coli ATCC 25922; experiment: MIC by broth microdilution; details: ATCC25922
Protocol: as §1, §2, §3, §4

[2] = tested on: Klebsiella pneumoniae ATCC 13883; experiment: MIC by broth microdilution; details: ATCC13883
Protocol: as §1, §2, §3, §4

[3] = tested on: Proteus vulgaris ATCC 13315; experiment: MIC by broth microdilution; details: ATCC13315
Protocol: as §1, §2, §3, §4

[4] = tested on: Pseudomonas aeruginosa ATCC 27853; experiment: MIC by broth microdilution; details: ATCC27853
Protocol: as §1, §2, §3, §4

[5] = tested on: Salmonella cholerasuis ATCC 14028; experiment: MIC by broth microdilution; details: ATCC14028
Protocol: as §1, §2, §3, §4

[6] = tested on: Staphylococcus aureus 100KC; experiment: MIC by broth microdilution; details: Staphylococcus aureus 100KC (MRSA)
Protocol: as §1, §2, §3, §4

Staphylococcus aureus 10 = experiment: MIC by broth microdilution
Protocol: as §1, §2, §3, §4

Staphylococcus aureus 5 = experiment: MIC by broth microdilution; details: Staphylococcus aureus 5 (MRSA)
Protocol: as §1, §2, §3, §4

[7] = tested on: Staphylococcus aureus ATCC 25923; experiment: MIC by broth microdilution; details: ATCC25923
Protocol: as §1, §2, §3, §4

[8] = tested on: Staphylococcus aureus ATCC 3798; experiment: MIC by broth microdilution; details: ATCC3798
Protocol: as §1, §2, §3, §4

[9] = tested on: Staphylococcus aureus ATCC 700699; experiment: MIC by broth microdilution; details: ATCC700699
Protocol: as §1, §2, §3, §4

[10] = tested on: Staphylococcus epidermidis 533; experiment: MIC by broth microdilution
Protocol: as §1, §2, §3, §4

[11] = tested on: Staphylococcus haemoliticus 585; experiment: MIC by broth microdilution; details: for MIC: Staphylococcus haemoliticus 585
Protocol: as §1, §2, §3, §4

[12] = tested on: yeast (Candida albicans) and fungi (Aspergillus niger); experiment: Antifungal activity; details: for antifungal activity: in words
Protocol: as §1
The minimum inhibitory concentrations (MIC) for Gram-positive and Gram-negative bacteria were determined by two-fold serial microdilution method in a cation-adjusted Müller–Hinton medium for bacteria and in a liquid culture medium RPMI 1640 with L-glutamine without sodium bicarbonate for fungi in accordance with the requirements of the Institute of Clinical and Laboratory Standards (CLSI/NCCLS). The antibacterial antibiotic levofloxacin and the antifungal antibiotic amphotericin B from Sigma-Aldrich were used as reference drugs.

SMILES | MIC (Enterococcus faecium 569) | activity against Enterococcus faecium 569 (Enterococcus faecium 569) | MIC [1] | MIC [2] | MIC [3] | MIC [4] | MIC [5] | MIC [6] | MIC (Staphylococcus aureus 10) | MIC (Staphylococcus aureus 5) | MIC [7] | MIC [8] | MIC [9] | MIC [10] | MIC [11] | antifungal activity [12] | activity against Staphylococcus haemoliticus 585 ([11]; in words, clinical isolate resistant to penicillins, aminoglycosides and erythromycin) | MIC ([12]; Candida albicans and Aspergillus niger)
OCCCCCn1cc([C+](c2cn(CCCCCO)c3ccccc23)c2cn(CCCCCO)c3ccccc23)c2ccccc21.[Cl-] [Compound 1, tris(1-(5-Hydroxypentyl)-1H-indol-3-yl) methylium chloride] | 8 µg/mL | reduced activity | 8 µg/mL | 2 µg/mL | 64 µg/mL | > 64 µg/mL | > 64 µg/mL | 2 µg/mL | 1 µg/mL | 4 µg/mL | 2 µg/mL | 2 µg/mL | 2 µg/mL | 1 µg/mL | 4 µg/mL | no antifungal activity at all |  | 
CCCn1cc([C+](c2cn(CCC)c3ccccc23)c2cn(C3=C(N)C(=O)NC3=O)c3ccccc23)c2ccccc21.[Cl-] [Compound 2, (1-(4-Amino-2,5-dioxo-2,5-dihydro-1H-pyrrol-3-yl)-1H-indol-3-yl)bis(1-propyl-1H-indol-3-yl) methylium chloride] | 8 µg/mL |  | > 64 µg/mL | > 64 µg/mL | 16 µg/mL | 32 µg/mL | > 64 µg/mL | 0.5 µg/mL | 0.5 µg/mL | 0.25 µg/mL | 0.5 µg/mL | 0.25 µg/mL | 0.5 µg/mL | 0.5 µg/mL | 2 µg/mL | low antifungal activity |  | 
CCCn1cc([C+](c2cn(CCC)c3ccccc23)c2cn(C3=C(N(C)C)C(=O)NC3=O)c3ccccc23)c2ccccc21 [Compound 3, 1-(4-Dimethylamino-2,5-dioxo-2,5-dihydro-1H-pyrrol-3-yl) -1H-indol-3-yl) bis(1-propyl-1H-indol-3-yl) methylium chloride] | > 64 µg/mL | inactive | 16 µg/mL | > 64 µg/mL | > 64 µg/mL | 16 µg/mL | > 64 µg/mL | 0.13 µg/mL | 0.25 µg/mL | 0.5 µg/mL | 0.13 µg/mL | 0.13 µg/mL | 0.13 µg/mL | 0.5 µg/mL | > 64 µg/mL |  | not active | 2 µg/mL
C[C@H]1COc2c(N3CCN(C)CC3)c(F)cc3c(=O)c(C(=O)O)cn1c23 [Levofloxacin, levofloxacin, reference compound] | 1 µg/mL (≈ 2.77 µM) |  | 0.06 µg/mL (≈ 0.166 µM) | 0.25 µg/mL (≈ 0.692 µM) | 4 µg/mL (≈ 11.1 µM) | 1 µg/mL (≈ 2.77 µM) | 0.13 µg/mL (≈ 0.36 µM) | 32 µg/mL (≈ 88.6 µM) | 0.13 µg/mL (≈ 0.36 µM) | 0.25 µg/mL (≈ 0.692 µM) | 0.25 µg/mL (≈ 0.692 µM) | 32 µg/mL (≈ 88.6 µM) | 16 µg/mL (≈ 44.3 µM) | 0.5 µg/mL (≈ 1.38 µM) | 0.5 µg/mL (≈ 1.38 µM) |  |  | 
